The source of these data is patent publication US12503425B2, “Methods of treating or controlling cytotoxic cerebral edema” (Aeromics, Inc., priority 2012, dated 2025).

The test system of data set [1] is AQP. As to the kind of experiment: AQP inhibition cell-based assay (Table 1).
The subject of data set [2] is cerebral edema. As to the kind of experiment: Mouse water toxicity model, brain water content. The data set is classed as in vivo. To be noted: at 30 minutes. The protocol:
Mouse Water Toxicity Model-Brain Water Content: Compounds are also tested for the ability to reduce CE in mice exposed to the water shock by examining brain water content. Mice are treated with a water bolus as described above, then sacrificed at 30 minutes. Brain water content is assessed by fresh/dry weight ratio, i.e. the brains are weighed immediately then desiccated in an oven at 100° C. for 24 h and dry weights measured (brain water percentage=[…]).

The subject of data set [3] is cerebral edema. As to the kind of experiment: Mouse water toxicity model, brain volume by MRI. To be noted: 0.76 mg/kg, versus no drug.
Description: The first time point at 5.67 min coincides with the scan slice at the middle of the brain during the first post-injection scan. Other time points are placed in a similar manner. The data is fitted to a single exponential equation: V/V0=Vi+dVmax(1−e^(−kt)); • where V/V0=relative brain volume, Vi=initial relative brain volume, dVmax=maximum change in relative brain volume, k=first order rate constant (min^−1), and t=time in minutes.
Mouse Water Toxicity Model-Brain Volume by Magnetic Resonance Imaging (MRI): MRI is used to measure changes in brain volume in response to water shock, using the water toxicity model. As described for the survival and brain water content studies above, mice are injected, IP, with a water bolus alone or water bolus and test compound at 0.76 mg/kg, and changes in brain volume as detected by MRI are monitored. […] This imaging method is found to provide sufficient contrast and resolution to sensitively detect changes in total brain volume in the mouse water toxicity model for cerebral edema. […] The cross sectional area of the brain in each imaging slice is measured by manual region-of-interest selection using ImageJ. Brain volumes are then calculated for each scan by summing the individual cross sectional brain areas and multiplying by the slice thickness (0.7 mm).
Data set [4] can be described thus: Bioconversion of Compound 5 to Compound 1 in mouse plasma in vitro. Conditions: 20° C. The data set is classed as in vitro ADME.
For data set [5], the system named is middle cerebral artery occlusion (MCAo). The data set can be described thus: Mouse MCAo stroke model, neurological outcome (5 point scale). The data set is classed as in vivo. Conditions: 5 mg/kg i.p. every three hours. An excerpt:
An improvement in neurological outcome is observed for animals given Compound 5. Control animals have an average neurological score of 2.77±0.66, while animals given Compound 5 have an average score of 0.88±0.31 (FIG. 13, inset, P=0.025, n=9 per treatment).

Regarding `O=C(Nc1ccccc1)c1ccccc1` [Phenylbenzamide], the “AQP inhibition Cell-Based Assay (%)” value in data set [1] amounted to 4.5%.
On to `O=C(Nc1cc(C(F)(F)F)cc(C(F)(F)F)c1)c1cc(Cl)ccc1O` [Compound 1], for which the “detection in plasma samples from mice injected IP with Compound 5” value is “undetectable”. Besides, the “reduction in CE (brain water content)” value in data set [2] (0.76 mg/kg) was 11.2%. Further, the “reduction in CE (brain water content)” value in data set [2] (7.6 mg/kg) is given as 15.9%. Also, in data set [3], the “reduction of the rate of CE development” value is given as 2.5 fold.
As to `O=C(Nc1cc(C(F)(F)F)cc(C(F)(F)F)c1)c1cc(Cl)ccc1OP(=O)(O)O` [Compound 5], the “time sufficient to render Compound 5 undetectable” value in data set [4] is recorded as “Less than 5 minutes”. In addition, the “progression of neurological state (in words)” value in data set [5] is “did not progress into a state of severe paralysis or death”.
